Results published in publication PMC12357092, “Two stages of substrate discrimination dictate selectivity in the Escherichia coli MetNI-Q ABC transporter system” (The Journal of Biological Chemistry, 2025).
Read-outs that look alike come from different tables or passages of the source.

Key:
MetQ [1] = molecular target: T1, MetQ (Escherichia coli, UniProt P28635); assay: isothermal titration calorimetry; assay type: binding
T1 construct: secreted, non-lipidated periplasmic MetQ, C-terminal 6xHis, from E. coli BL21(DE3) Gold
T1 sequence (P28635 23-271): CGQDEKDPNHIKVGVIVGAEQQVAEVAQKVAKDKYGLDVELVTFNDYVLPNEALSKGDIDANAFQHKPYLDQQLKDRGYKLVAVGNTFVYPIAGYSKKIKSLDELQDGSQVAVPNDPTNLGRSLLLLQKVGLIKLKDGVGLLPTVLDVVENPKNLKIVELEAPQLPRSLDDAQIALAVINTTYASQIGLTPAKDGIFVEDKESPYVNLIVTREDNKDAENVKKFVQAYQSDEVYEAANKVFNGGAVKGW

MetNI [2] = molecular target: T2, MetNI (Escherichia coli, UniProt P30750); assay: ATPase inhibition, EnzChek phosphate assay; assay type: biochemical
T2 construct: gene metN; DDM-solubilized full MetNI transporter (MetN2MetI2), His-tag purified, prepared as previously described; with D-methionine transport system permease protein MetI
Text: ATPase inhibition, EnzChek phosphate assay on MetNI | we measured the inhibitory constants (Ki) for both L- and D-Met

MetQ [3] = molecular target: T3, MetQ (Escherichia coli, UniProt P28635, N229A); assay: isothermal titration calorimetry; assay type: binding
T3 construct: secreted, non-lipidated periplasmic MetQ, C-terminal 6xHis, from E. coli BL21(DE3) Gold
T3 sequence (P28635 23-271 N229A): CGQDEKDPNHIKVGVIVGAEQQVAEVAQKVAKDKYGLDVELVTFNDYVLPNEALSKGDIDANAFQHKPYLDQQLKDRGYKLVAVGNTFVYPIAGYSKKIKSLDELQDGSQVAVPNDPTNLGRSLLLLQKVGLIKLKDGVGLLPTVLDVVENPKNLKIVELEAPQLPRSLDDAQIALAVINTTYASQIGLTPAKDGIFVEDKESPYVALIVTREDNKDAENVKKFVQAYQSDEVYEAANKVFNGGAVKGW

MetNI [4] = molecular target: T4, MetNI (Escherichia coli, UniProt P30750, N295A); assay: ATPase inhibition, EnzChek phosphate assay; assay type: biochemical
T4 construct: gene metN; DDM-solubilized full MetNI transporter (MetN2MetI2), His-tag purified, prepared as previously described; with D-methionine transport system permease protein MetI

MetNI-Q = molecular target: T5, MetNI-Q (Escherichia coli, UniProt P28635+P31547); assay: proteoliposome uptake of 3H-methionine; assay type: biochemical; details: 50 μM L-Met, 50 μM WT MetQ, ATP-regenerating system in lumen, 5 mM MgCl2, pH 7.5, 37 °C; labelled compound
T5 construct: gene metQ
T5 sequence (P28635 23-271): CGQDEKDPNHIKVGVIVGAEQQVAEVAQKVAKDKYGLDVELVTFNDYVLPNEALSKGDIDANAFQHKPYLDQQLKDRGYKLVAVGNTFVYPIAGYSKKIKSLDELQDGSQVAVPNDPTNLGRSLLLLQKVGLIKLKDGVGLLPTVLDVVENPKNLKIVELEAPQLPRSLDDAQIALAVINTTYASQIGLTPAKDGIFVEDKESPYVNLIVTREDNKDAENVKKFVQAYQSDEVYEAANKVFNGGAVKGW
T5 sequence (P31547 1-217): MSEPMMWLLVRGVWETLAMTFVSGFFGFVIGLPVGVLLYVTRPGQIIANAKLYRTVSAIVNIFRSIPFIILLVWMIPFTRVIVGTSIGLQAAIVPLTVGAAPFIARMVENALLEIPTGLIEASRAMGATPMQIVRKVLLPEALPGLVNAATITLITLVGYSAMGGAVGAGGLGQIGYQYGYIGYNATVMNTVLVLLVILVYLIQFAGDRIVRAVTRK
T5 sequence (P30750 1-343 partner): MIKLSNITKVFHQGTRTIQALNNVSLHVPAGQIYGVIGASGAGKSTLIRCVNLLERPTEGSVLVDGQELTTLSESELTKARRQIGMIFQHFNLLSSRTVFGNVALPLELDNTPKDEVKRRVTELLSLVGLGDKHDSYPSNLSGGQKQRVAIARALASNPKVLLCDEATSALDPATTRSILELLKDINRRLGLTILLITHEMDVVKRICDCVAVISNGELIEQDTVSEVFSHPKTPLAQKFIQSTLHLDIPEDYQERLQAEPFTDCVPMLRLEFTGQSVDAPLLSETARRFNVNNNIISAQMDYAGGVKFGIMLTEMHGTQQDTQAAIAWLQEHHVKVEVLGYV

MetQ (Escherichia coli) [5] = molecular target: MetQ (Escherichia coli) (UniProt P28635); details: cited from earlier work
MetQ (Escherichia coli) [6] = molecular target: MetQ (Escherichia coli) (UniProt P28635); details: cited from earlier work; remark: listed apart in the source

T4 sequence (P30750 whole entry N295A, one chain of several): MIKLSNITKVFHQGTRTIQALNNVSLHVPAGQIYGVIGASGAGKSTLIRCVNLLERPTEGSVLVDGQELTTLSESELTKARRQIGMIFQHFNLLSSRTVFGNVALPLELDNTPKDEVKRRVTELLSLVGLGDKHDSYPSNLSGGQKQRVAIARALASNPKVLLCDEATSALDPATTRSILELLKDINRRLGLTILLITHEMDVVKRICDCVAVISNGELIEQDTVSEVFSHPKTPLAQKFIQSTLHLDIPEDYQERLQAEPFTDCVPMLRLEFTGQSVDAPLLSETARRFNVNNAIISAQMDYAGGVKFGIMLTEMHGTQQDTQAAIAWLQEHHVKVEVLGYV

Compound	Kd (MetQ [1]) [µM]	Ki (MetNI [2]) [µM]	Kd (MetQ [3]) [µM]	Ki (MetNI [4]) [µM]	uptake rate (MetNI-Q)	Kd (MetQ (Escherichia coli) [5]) [µM]	Kd (MetQ (Escherichia coli) [6]) [µM]
CSCC[C@@H](N)C(=O)O [D-Met]	6.6 ± 0.6	5400 ± 100	110 ± 30	2400 ± 400	–	–	–
CSCC[C@H](N)C(=O)O [L-Met]	0.0066 ± 0.0006	120 ± 20	300 ± 70	3300 ± 300	L-Met was imported into proteoliposomes	–	–
MetNI (from UniProt P30750)	–	–	–	–	–	1.1	0.027
